The target of one series is human CYP3A4 (Homo sapiens (Human), UniProt P08684). Put plainly: Inhibitory effect on CYP3A4. The series is classed as in vitro ADME. The following applies: 30-minute pre-incubation, Luciferin-IPA substrate; read-out: IC50 (μM), CYP3A4 inhibition. As to the method:
Inhibitory Effect on CYP3A4
Enzyme reaction was performed by incubating in a potassium phosphate buffer solution (pH 7.4) containing 1 nM to 20 μM test compound, 3.2 mM magnesium chloride, 0.2 pmol human CYP3A4 (BD Biosciences), 0.5 mM reduced nicotinamide adenine dinucleotide phosphate (NADPH) and 3 μM Luciferin-IPA (Promega) at 37° C. for 10 minutes. The volume of the reaction solution was 50 μL/well. The 30-minute pre-incubation group was incubated at 37° C. for 30 minutes before adding tire substrate, the Luciferin-IPA solution (12.5 μL/well). At the end of the enzyme reaction, 50 μL/well of a Luciferin detection reagent (Promega) was added to the wells, and the plate was left at room temperature for 20 minutes. Then, the emission intensities were measured with Infinite M1000 (TECAN). The enzyme activities (%) relative to the value of the group to which the test compound was not added were calculated.

The next series deals with NK1 receptor (Meriones unguiculatus (Mongolian jird) (Gerbillus unguiculatus), UniProt Q5DUB1). Put plainly: Effect on foot-tapping induced by NK1 receptor agonist GR73632. The following applies: male gerbil, 0.1 mg/kg iv, GR73632 after four hours. The class given is in vivo. The procedure: (1) Effect on Foot-Tapping
Sequence of NK1 receptor (Q5DUB1 whole entry): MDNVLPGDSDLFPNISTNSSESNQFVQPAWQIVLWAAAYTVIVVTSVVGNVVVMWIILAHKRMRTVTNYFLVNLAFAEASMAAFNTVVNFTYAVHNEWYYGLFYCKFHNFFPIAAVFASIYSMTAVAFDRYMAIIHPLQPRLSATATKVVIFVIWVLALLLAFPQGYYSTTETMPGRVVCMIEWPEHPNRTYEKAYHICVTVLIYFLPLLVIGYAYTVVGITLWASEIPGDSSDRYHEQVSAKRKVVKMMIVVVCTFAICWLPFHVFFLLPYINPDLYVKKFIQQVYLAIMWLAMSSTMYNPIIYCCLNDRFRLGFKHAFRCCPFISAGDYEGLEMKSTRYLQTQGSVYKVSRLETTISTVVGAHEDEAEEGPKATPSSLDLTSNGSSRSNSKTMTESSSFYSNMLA
The test compound solution was prepared by dissolving the test compound in a vehicle (a mixture of 50% N,N-dimethylacetamide (Wako Pure Chemical Industries), 30% propylene glycol (Wako Pure Chemical Industries). 4% 2-hydroxypropyl-β-cyclodextrin (Wako Pure Chemical Industries) and 16% distilled water).
(§1) A male gerbil (Japan SLC) was anesthetized with isoflurane, and 0.1 mg/kg of a test compound was administered from the jugular vein. After four hours. GR73632 (5 pmol/5 μl saline), which is an NK1 receptor agonist, was administered into the cerebral ventricle at the part 1 mm lateral to and 4.5 mm below the bregma in the head, under anesthesia with isoflurane. After the administration, the gerbil was moved to an observation cage, and the foot-tapping period during 30 minutes after the recovery of the righting reflex was measured. The foot-tapping inhibition rate (%) of each test compound was calculated by the following equation. Foot-tapping inhibition rate (%)−{1−(Fool-tapping period when test compound was administered)/(Foot-tapping period when solvent was administered)}×100 (2) Measurement of Drug Concentrations
(§2) In the table, Ex. No. means the Example number. Inhibition (%) is the loot-tapping inhibition rate, and Cone. (nM) is the drug concentration in the brain.

The next series deals with human NK1 receptor (Homo sapiens (Human), UniProt P25103). Put plainly: Affinity for human NK1 receptor (125I-substance P receptor binding test, membrane fraction). The following applies: membrane fraction of human NK1 receptor-expressing 293T cells; read-out: IC50 (nM), concentration required for 50% inhibition of 125I-substance P binding. The procedure: Affinity for Human NK1 Receptor
Sequence of human NK1 receptor (P25103 whole entry): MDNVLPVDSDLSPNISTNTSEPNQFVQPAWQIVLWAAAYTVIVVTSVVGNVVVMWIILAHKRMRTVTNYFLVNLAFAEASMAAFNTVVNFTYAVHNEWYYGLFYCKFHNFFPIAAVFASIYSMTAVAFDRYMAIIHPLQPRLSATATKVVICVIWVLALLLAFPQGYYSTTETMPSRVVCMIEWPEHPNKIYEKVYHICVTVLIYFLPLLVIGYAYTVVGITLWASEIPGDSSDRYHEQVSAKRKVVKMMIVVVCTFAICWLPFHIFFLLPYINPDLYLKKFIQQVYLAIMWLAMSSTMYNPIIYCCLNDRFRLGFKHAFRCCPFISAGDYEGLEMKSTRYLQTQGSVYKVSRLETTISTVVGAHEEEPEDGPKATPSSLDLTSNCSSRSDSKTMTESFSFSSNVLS
(3) Measurement of Binding Affinity to Human NK1 Receptor
(3-1) Preparation of Membrane Fraction from Human NK1 Receptor-Expressing Cells
Human NK1 receptor-expressing cells were prepared in a 175 cm^2 culture flask (Nippon Becton Dickinson). The formation of a complex of the human NK1 receptor expression plasmid and Lipofectamine 2000 was performed by calculating the culture area ratio and increasing the scale of the method described in the above 2-4 by the ratio. The human NK1 receptor-expressing cells were collected in a buffer solution for the membrane fraction preparation (50 mM Tris (Wako Pure Chemical), 120 mM sodium chloride (Wako Pure Chemical Industries), 5 mM potassium chloride (Wako Pure Chemical Industries), 1 mM ethylenediaminetetraacetic acid (Sigma), 0.002 mg/mL chymostatin (Peptide Institute), 0.04 mg/bacitracin (Wako Pure Chemical Industries), 0.005 mg/mL phosphoramidon (Peptide Institute) and 0.5 mM phenylmethylsulfonyl fluoride (Wako Pure Chemical Industries), pH7.4) and centrifuged at 1,880 g for 10 minutes, and the cell sediment was suspended in the buffer solution for the membrane fraction preparation. After freezing and thawing the cells once, the cells were homogenized using a Dounce-type homogenizer (cooled on ice, 1000 rpm, 20 times) The homogenized cell suspension was centrifuged at 20,000 rpm for 10 minutes, and the supernatant was removed to obtain cell sediment. The cell sediment was suspended again in the buffer solution for the membrane fraction preparation and homogenized using a Dounce-type homogenizer (cooled on ice, 1000 rpm, 30 times). The cell suspension was centrifuged at 20,000 rpm for 10 minutes, and the supernatant was removed to obtain cell sediment. The same homogenization and centrifugation were repeated again, and final cell sediment was obtained. The final cell sediment was suspended in a buffer solution for the receptor binding test (50 mM Tris (Wako Pure Chemical Industries). 3 mM manganese chloride (Wako Pure Chemical Industries), 0.002 mg/mL chymostatin (Peptide Institute), 0.04 mg/bacitracin (Wako Pure Chemical Industries) and 0.02% bovine serum albumin (Sigma), pH 7.4), and the protein concentration was measured using BCA Protein Assay Kit (Pierce).
(3-2) Receptor Binding Test
The buffer solution for the receptor binding test was dispensed to the wells of a 96-well assay plate (Greiner) at 22.5 μL/well. DMSO solutions of a test compound, which were prepared at an 80-time higher concentration using 100% dimethyl sulfoxide (DMSO), were added to the wells at 2.5 μL/well (final concentrations of 1 nM to 100 nM), and the solutions were mixed. As a radiolabeled ligand, ^125I-substance P (Substance P, [^125I]Tyr^8-, Perkin Elmer) was used. ^125I-substance P was diluted with the buffer solution for the receptor binding test to a concentration resulting in 125 pmol/25 μL/well and added to the 96-well assay plate, and the solutions were mixed. The membrane fraction prepared from the human NK1 receptor-expressing cells was diluted with the buffer solution for the receptor binding test to a concentration resulting in 8 to 10 μg/well, suspended until the suspension became in such a homogenous state that the suspension could flow through a 27G injection needle smoothly and then added to the 96-well assay plate at 150 μL/well. Then, the plate was incubated at room temperature for 60 minutes while shaking the plate. The reaction solutions were suction-filtered through a multiscreen 96-well filter plate (Millipore) which had been pre-treated with 0.3% polyethyleneimine, and the reaction was terminated by washing with a washing solution (50 mM Tris and 0.02% bovine serum albumin, pH 7.4) four times. The bottom of the microplate was dried at 60° C., and then 100 μL/well of MicroScint 20 (PerkinElmer) was dispensed to the wells. The top of the plate was sealed with TopSeal A (PerkinElmer), and the plate was shaken for 5 to 10 minutes. […]

Series [1] is described as follows: Measurement of drug concentrations in the brain after foot-tapping. The series is classed as in vivo. The following applies: male gerbil, 0.1 mg/kg iv, after foot-tapping was finished. The procedure: as §1
After foot-tapping was finished, laparotomy was performed immediately under anesthesia with ether, and a blood sample was taken from the abdominal vena cava. At the same lime, the brain was extracted. Through a quantitative analysis using liquid chromatography-mass spectrometry (LC/MS), the concentrations of the test compound in the plasma and the brain were measured.
as §2

We go through one compound from patent publication US10011568B2, “Cyclohexyl pyridine derivative” (priority 2014, dated 2018).

Sequence of human CYP3A4 (P08684 whole entry): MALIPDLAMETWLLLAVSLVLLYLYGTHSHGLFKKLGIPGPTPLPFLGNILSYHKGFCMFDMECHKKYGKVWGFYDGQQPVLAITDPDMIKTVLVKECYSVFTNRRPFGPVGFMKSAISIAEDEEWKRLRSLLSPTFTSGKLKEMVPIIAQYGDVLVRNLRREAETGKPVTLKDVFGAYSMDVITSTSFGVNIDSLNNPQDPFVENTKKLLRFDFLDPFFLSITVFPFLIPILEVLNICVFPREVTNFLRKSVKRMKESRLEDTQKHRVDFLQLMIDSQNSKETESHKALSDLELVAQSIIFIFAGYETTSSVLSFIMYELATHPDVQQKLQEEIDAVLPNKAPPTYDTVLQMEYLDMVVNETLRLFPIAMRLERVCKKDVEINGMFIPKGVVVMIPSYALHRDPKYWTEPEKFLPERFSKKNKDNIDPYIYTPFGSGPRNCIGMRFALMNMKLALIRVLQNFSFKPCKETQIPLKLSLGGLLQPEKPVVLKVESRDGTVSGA

On to `Cc1cc(F)ccc1-c1cc(C2CCC(CC(=O)O)CC2)nc(C)c1N(C)C(=O)C(C)(C)c1cc(C(F)(F)F)cc(C(F)(F)F)c1` (stereo not shown) [Example 18, {4-[5-{[2-(3,5-Bistrifluoromethylphenyl)-2-methylpropionyl]methylamino}-4-(4-fluoro-2-methylphenyl)-6-methylpyridin-2-yl]cyclohexyl}acetic Acid], for which the values for the IC50 at human CYP3A4 and at human NK1 receptor were 4.9 µM and 6.45 nM, respectively. Besides, the “Inhibition (%), foot-tapping inhibition rate” value at NK1 receptor is 100%. Moreover, the “Conc. (nM), drug concentration in the brain” value in series [1] is on record as 47 nM.
